Results published in US12264158B2, “Protein kinase MKK4 inhibitors for promoting liver regeneration or reducing or preventing hepatocyte death” (HEPAREGENIX GMBH, priority 2018, dated 2025).
pIC50: −log10 of the molar value.

Tests used:
MKK4 = target: T1, MKK4 (Homo sapiens, UniProt P45985); assay: KINOMEscan competition binding assay, MKK4 potency; conditions: concentration of 100 nM
T1 construct: S84/D399; host or cells: HEK-293
T1 sequence (P45985 84-399): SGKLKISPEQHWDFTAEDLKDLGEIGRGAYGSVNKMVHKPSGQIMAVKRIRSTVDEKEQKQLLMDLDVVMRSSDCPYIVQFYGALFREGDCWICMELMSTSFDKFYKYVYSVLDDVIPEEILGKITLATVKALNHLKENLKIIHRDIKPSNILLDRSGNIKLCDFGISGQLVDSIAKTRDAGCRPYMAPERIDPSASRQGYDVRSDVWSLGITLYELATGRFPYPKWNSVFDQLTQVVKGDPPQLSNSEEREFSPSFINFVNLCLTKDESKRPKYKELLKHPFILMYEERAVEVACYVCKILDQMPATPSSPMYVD
Method in brief: (§1)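 DNA-tagged kinases expressed in HEK-293 cells compete between test compound and immobilized ligand on blocked beads. Bound kinase is eluted and quantified by qPCR of the DNA tag. Compounds were tested at the indicated final concentrations, prepared from 10 mM stocks.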

JNK1 = target: T2, JNK1 (Homo sapiens, UniProt P45983); assay: KINOMEscan competition binding assay, selectivity against off-target JNK1; conditions: concentration of 100 nM
T2 construct: M1/Q384; host or cells: HEK-293
T2 sequence (P45983 1-384 isoform P45983-2): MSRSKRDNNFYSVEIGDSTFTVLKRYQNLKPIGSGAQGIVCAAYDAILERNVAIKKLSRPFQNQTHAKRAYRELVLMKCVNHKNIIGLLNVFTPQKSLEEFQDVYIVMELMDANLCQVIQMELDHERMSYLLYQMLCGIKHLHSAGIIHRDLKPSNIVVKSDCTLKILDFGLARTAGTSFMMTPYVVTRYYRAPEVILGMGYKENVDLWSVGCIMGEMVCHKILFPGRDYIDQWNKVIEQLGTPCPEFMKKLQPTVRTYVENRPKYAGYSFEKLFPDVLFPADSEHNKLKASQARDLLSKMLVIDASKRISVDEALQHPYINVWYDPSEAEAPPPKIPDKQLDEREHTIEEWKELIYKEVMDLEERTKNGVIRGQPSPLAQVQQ
Method in brief: as §1

MKK7 = target: T3, MKK7 (Homo sapiens, UniProt O14733); assay: KINOMEscan competition binding assay, selectivity against off-target MKK7; conditions: concentration of 100 nM
T3 construct: M1/R419; host or cells: HEK-293
T3 sequence (O14733 1-419): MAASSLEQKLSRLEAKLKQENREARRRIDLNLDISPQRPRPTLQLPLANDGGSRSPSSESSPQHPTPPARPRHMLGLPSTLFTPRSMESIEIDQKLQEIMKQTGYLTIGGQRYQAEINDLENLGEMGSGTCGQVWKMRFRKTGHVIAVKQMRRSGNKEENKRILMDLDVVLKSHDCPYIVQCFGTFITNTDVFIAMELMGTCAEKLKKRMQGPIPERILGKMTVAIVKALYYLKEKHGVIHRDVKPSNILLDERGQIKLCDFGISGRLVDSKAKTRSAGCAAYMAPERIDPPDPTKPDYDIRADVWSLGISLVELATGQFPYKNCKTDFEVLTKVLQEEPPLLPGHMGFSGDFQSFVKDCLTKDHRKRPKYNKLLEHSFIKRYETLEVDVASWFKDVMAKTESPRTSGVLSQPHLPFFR
Method in brief: as §1

BRaf = BRaf (Homo sapiens, UniProt P15056); assay: KINOMEscan competition binding assay, selectivity against off-target BRaf; conditions: concentration of 100 nM
BRaf, sequence (P15056 whole entry): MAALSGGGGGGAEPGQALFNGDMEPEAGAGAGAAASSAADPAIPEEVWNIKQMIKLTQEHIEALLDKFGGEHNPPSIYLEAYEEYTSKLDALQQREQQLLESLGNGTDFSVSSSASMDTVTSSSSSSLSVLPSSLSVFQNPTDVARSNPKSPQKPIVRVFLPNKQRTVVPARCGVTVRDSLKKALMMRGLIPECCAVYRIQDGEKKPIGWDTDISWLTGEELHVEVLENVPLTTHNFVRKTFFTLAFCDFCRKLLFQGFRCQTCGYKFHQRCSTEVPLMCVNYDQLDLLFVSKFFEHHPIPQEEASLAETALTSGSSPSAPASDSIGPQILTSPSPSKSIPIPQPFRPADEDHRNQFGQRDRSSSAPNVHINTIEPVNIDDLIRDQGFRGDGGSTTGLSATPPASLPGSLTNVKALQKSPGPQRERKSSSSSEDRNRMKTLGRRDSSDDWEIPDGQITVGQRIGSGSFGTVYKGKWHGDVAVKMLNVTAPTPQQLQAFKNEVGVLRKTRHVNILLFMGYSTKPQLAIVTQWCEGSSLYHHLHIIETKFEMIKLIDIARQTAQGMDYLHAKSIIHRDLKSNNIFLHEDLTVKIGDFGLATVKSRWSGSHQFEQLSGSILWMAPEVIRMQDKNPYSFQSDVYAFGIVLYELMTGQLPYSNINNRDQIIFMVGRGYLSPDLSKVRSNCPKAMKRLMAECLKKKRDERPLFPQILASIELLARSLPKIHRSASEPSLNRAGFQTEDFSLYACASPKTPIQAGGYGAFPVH
Method in brief: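 Competition binding: test compound competes with an immobilized ligand for DNA-tagged BRaf, and kinase captured on the ligand is quantified by qPCR of the DNA tag. Compounds from 10 mM stocks were tested at the indicated final concentrations.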

MKK4-MEKK2 mix = target: T4, MKK4-MEKK2 mix (Homo sapiens, UniProt P45985); assay: Radiometric protein kinase assay, MEKK2 dependent MKK4 activation (cascade); type: biochemical; conditions: substrate JNK1 KRKR, ATP 0.2 μM, read-out: Cascade, potency derived from IC50-values
T4 construct: MEKK2, recombinant, active: ProQinase product #0583-0000-1
T4 sequence (P45985 2-399): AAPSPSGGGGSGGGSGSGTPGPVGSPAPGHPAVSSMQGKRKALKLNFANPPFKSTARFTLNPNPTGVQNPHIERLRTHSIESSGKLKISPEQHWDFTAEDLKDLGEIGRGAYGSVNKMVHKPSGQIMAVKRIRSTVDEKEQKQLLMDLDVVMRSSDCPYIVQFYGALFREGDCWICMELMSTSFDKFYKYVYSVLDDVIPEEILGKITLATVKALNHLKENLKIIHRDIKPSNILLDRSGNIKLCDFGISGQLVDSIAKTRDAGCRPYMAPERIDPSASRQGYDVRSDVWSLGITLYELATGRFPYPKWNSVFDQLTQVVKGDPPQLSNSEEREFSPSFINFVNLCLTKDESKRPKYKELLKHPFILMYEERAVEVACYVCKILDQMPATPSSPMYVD
Procedure: The activation step is done in 50 mM HEPES pH 7.5, 50 mM NaCl, 3.8 mM MgCl2, 2.5 mM DTT, 10% (v/v) glycerol. Final DMSO concentration is 1%. The activation mixture is pipetted in the following order • 2.5 μl compound in 4% DMSO • 2.5 μl ATP/MgCl2 mix • 5 μl premixed kinase solution MKK4:MEKK2 10:1 (w/w)
Protein concentrations in the activation mix are 1 μM MKK4 and 50 nM MEKK2.
(§2) A radiometric protein kinase assay was used for measuring the kinase activity of the respective protein kinases. All kinase assays were performed in 96-well polypropylene plates. After the reactions were stopped, the assay mixtures were transferred to 96-well MSFC filter-plates (Millipore). The reaction mix was passed through the filter membrane by aspiration, the membrane was washed 3 times with 150 mM H3PO4, once with ethanol, dried and liquid scintillation cocktail was added. Radioactivity was determined by counting of the samples in a Microbeta multiwell scintillation counter (Wallac).

MKK4 active = target: T5, MKK4 active (Homo sapiens, UniProt P45985); assay: Radiometric protein kinase assay, MKK4 active; type: biochemical; conditions: substrate JNK1 KRKR, ATP 0.2 μM, read-out: MKK4, potency derived from IC50-values
T5 construct: purchased ProQinase #0948-0000-1
T5 sequence (P45985 1-399): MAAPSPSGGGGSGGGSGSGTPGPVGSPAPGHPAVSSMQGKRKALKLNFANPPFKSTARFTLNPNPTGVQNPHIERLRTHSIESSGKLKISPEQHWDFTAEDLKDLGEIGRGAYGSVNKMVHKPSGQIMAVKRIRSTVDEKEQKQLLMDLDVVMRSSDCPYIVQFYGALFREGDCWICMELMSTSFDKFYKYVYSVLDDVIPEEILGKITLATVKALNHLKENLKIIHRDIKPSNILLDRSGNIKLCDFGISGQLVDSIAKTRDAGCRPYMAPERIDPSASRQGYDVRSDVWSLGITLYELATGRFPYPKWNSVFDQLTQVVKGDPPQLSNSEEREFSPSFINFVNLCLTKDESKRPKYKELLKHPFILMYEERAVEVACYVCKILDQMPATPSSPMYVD
Procedure: as §2

MEKK2 = target: T6, MEKK2 (Homo sapiens, UniProt Q9Y2U5); assay: Radiometric protein kinase assay, MEKK2; type: biochemical; conditions: substrate Casein, ATP 0.2 μM; read-out: MEKK2, potency derived from IC50-values
T6 construct: purchased ProQinase #0583-0000-1
T6 sequence (Q9Y2U5 1-619): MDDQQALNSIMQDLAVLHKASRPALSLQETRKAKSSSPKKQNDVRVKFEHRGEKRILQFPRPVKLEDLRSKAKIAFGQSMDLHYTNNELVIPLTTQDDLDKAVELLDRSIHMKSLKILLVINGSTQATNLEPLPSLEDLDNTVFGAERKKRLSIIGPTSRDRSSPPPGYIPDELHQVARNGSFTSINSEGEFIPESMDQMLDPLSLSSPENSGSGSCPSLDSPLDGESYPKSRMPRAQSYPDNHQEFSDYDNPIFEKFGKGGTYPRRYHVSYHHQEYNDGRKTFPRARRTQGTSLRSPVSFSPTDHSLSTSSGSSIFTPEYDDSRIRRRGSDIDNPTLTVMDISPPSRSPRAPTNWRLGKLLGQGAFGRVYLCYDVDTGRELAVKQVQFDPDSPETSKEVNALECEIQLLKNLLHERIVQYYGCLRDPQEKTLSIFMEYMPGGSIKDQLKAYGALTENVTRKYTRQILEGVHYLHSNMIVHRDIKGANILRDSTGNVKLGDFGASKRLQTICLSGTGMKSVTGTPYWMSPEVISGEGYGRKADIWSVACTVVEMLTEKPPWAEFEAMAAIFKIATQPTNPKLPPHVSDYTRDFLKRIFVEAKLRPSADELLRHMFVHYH
Procedure: as §2

SMILES	MKK4, residual percent of control binding (PoC) (MKK4)	Selectivity vs. JNK1, ratio PoC(JNK1)/PoC(MKK4) (JNK1)	Selectivity vs. MKK7, ratio PoC(MKK7)/PoC(MKK4) (MKK7)	Selectivity vs. BRaf, ratio PoC(BRaf)/PoC(MKK4) (BRaf)	pIC50 (MKK4-MEKK2 mix)	pIC50 (MKK4 active)	pIC50 (MEKK2)
CCCS(=O)(=O)Nc1ccc(F)c(C(=O)c2n[nH]c3ncc(-c4ccc(S(=O)(=O)NC(C)=O)cc4)cc23)c1F [Example 51k, N-((4-(3-(2,6-difluoro-3-(propylsulfonamido)benzoyl)-1H-pyrazolo[3,4-b]pyridin-5-yl)phenyl)sulfonyl)acetamide]	+++ (PoC < 1)	+++ (PoC(JNK1)/PoC(MKK4) ≥ 30)	+++ (PoC(MKK7)/PoC(MKK4) ≥ 30)	O (PoC(BRaf)/PoC(MKK4) < 3)	> 6.30	> 6.30	< 5.00
CCCS(=O)(=O)Nc1ccc(F)c(C(=O)c2n[nH]c3ncc(-c4ccccc4C)cc23)c1F [Example 13, N-(2,4-difluoro-3-(5-o-tolyl-1H-pyrazolo[3,4-b]pyridine-3-carbonyl)-phenyl)propane-1-sulfon-amide]	++ (1 ≤ PoC < 10)	++ (30 > PoC(JNK1)/PoC(MKK4) ≥ 10)	++ (30 > PoC(MKK7)/PoC(MKK4) ≥ 10)	+ (10 > PoC(BRaf)/PoC(MKK4) ≥ 3)	5.00 to 6.00	> 6.30	5.00 to 6.00
CCCS(=O)(=O)Nc1ccc(F)c(C(=O)c2n[nH]c3ncc(-c4ccccc4OC)cc23)c1F [Example 14, N-(2,4-difluoro-3-(5-(2-methoxyphenyl)-1H-pyrazo-lo[3,4-b]pyridine-3-carbonyl)-phenyl)propane-1-sulfon-amide]	++ (1 ≤ PoC < 10)	++ (30 > PoC(JNK1)/PoC(MKK4) ≥ 10)	+++ (PoC(MKK7)/PoC(MKK4) ≥ 30)	+++ (PoC(BRaf)/PoC(MKK4) ≥ 30)	5.00 to 6.00	6.00 to 6.30	< 5.00
CCCS(=O)(=O)Nc1ccc(F)c(C(=O)c2n[nH]c3ncc(-c4ccc(N(C)C)cc4)cc23)c1F [Example 8, N-(3-(5-(4-(dimethylamino)-phenyl)-1H-pyrazolo[3,4-b]pyridine-3-carbonyl)-2,4-difluorophenyl)-propane-1-sulfonamide]	++ (1 ≤ PoC < 10)	+++ (PoC(JNK1)/PoC(MKK4) ≥ 30)	+++ (PoC(MKK7)/PoC(MKK4) ≥ 30)	O (PoC(BRaf)/PoC(MKK4) < 3)	< 5.00	5.00 to 6.00	< 5.00
CCCS(=O)(=O)Nc1ccc(F)c(C(=O)c2n[nH]c3ncc(-c4ccccc4O)cc23)c1F [Example 21, N-(2,4-difluoro-3-(5-(2-hydroxyphenyl)-1H-pyrazo-lo[3,4-b]pyridine-3-carbonyl)-phenyl)propane-1-sulfon-amide]	++ (1 ≤ PoC < 10)	+ (10 > PoC(JNK1)/PoC(MKK4) ≥ 3)	++ (30 > PoC(MKK7)/PoC(MKK4) ≥ 10)	+ (10 > PoC(BRaf)/PoC(MKK4) ≥ 3)	5.00 to 6.00	6.00 to 6.30	5.00 to 6.00
CCCS(=O)(=O)Nc1ccc(F)c(C(=O)c2n[nH]c3ncc(-c4ccc(S(C)(=O)=O)cc4)cc23)c1F [Example 24, N-(2,4-difluoro-3-(5-(4-(methylsulfonyl)phenyl)-1H-pyrazolo[3,4-b]pyridine-3-carbonyl)phenyl)propane-1-sulfonamide]	++ (1 ≤ PoC < 10)	+++ (PoC(JNK1)/PoC(MKK4) ≥ 30)	+++ (PoC(MKK7)/PoC(MKK4) ≥ 30)	O (PoC(BRaf)/PoC(MKK4) < 3)	< 5.00	6.00 to 6.30	< 5.00
CCCS(=O)(=O)Nc1ccc(F)c(C(=O)c2n[nH]c3ncc(-c4ccc(O)cc4)cc23)c1F [Example 19, N-(2,4-difluoro-3-(5-(4-hydroxyphenyl)-1H-pyrazo-lo[3,4-b]pyridine-3-carbonyl)-phenyl)propane-1-sulfon-amide]	+++ (PoC < 1)	+++ (PoC(JNK1)/PoC(MKK4) ≥ 30)	+++ (PoC(MKK7)/PoC(MKK4) ≥ 30)	++ (30 > PoC(BRaf)/PoC(MKK4) ≥ 10)	5.00 to 6.00	> 6.30	5.00 to 6.00
